Patent US8765994B2, “Ship 1 modulators” (The University of British Columbia, priority 2001, dated 2014)

What was measured:
SHIP 1 enzyme = target: T1, SHIP 1 enzyme (Homo sapiens, UniProt Q92835); test: SHIP 1 enzyme assay (inorganic phosphate release, malachite green); assay type: biochemical; details: FIG. 1
T1 construct: hemagglutinin (HA); hexahistidine (His6); made in house
T1 sequence (Q92835 1-1189): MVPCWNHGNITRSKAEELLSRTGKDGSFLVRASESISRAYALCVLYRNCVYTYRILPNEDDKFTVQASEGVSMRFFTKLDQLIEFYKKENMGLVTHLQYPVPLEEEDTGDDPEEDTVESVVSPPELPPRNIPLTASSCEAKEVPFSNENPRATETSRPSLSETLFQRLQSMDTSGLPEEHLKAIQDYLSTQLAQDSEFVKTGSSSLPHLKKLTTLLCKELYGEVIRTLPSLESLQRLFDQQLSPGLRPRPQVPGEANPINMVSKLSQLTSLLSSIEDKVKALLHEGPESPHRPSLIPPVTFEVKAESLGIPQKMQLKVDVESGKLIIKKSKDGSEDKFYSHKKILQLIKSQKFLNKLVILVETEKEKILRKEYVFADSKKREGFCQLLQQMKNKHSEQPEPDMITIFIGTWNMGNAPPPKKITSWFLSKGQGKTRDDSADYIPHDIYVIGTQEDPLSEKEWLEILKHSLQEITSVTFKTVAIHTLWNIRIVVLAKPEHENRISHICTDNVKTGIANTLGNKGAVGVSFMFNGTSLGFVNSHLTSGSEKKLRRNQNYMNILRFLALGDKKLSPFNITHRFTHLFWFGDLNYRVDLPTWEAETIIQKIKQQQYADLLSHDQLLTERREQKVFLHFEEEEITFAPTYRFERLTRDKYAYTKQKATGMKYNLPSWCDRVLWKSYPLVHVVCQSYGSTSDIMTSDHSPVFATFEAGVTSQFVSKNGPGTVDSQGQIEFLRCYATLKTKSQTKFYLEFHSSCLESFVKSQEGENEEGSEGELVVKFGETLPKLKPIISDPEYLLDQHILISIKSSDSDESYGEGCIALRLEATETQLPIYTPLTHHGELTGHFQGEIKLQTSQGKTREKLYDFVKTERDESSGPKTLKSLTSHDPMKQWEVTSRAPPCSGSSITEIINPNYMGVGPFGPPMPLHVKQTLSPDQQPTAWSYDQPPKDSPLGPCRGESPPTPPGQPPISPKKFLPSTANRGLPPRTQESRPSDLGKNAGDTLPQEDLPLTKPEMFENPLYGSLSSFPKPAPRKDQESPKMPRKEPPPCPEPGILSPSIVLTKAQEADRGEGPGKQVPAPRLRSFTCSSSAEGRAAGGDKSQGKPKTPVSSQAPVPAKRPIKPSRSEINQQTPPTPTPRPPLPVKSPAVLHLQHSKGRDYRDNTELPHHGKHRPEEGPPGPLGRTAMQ
Experimental: The assay was performed in 96-well microtitre plates. SHIP 1 enzyme was produced with a hemagglutinin and a hexahistidine tag, from a mammalian expression vector. The His tag was employed to enhance purification. SHIP 1 enzyme (10 ng) was incubated with extract or DMSO for 15 minutes at room temperature before addition of 200 µM inositol-1,3,4,5-tetrakisphosphate. The reaction was allowed to proceed for 20 minutes at 37 degrees C. The amount of inorganic phosphate released was then assessed by the addition of malachite green reagent followed by an absorbance measurement at 650 nm.

SHIP 1−/− macrophages = test: Macrophage NO release assay in SHIP 1-/- macrophages; assay type: cell-based; details: FIG. 2
Experimental: For the NO release assay, wild-type or SHIP 1−/− macrophage cells were aliquoted into microtitre plates (5×10^4/well) and activated with […] endotoxin (LPS) in the presence or absence of test compound or DMSO carrier. The cells were incubated at 37° C., 5% CO2 for 24 hours and the culture supernatant was removed for NO determination using the Griess reagent. Alternatively, J774.1a macrophage cells were treated with 10 ng/ml of test compound dissolved in DMSO for 40 minutes prior to the addition of LPS. Culture supernatants were collected after 24 hr. for determination of NO concentration using the Griess reagent.

[1] = test system: bone marrow derived mast cells; test: Mast cell activation assay (β-hexosaminidase release); assay type: cell-based; details: FIG. 3
Experimental: For the mast cell activation assay, bone marrow derived mast cells were incubated at 4° C. with anti-DNP IgE for 1 hr. They were then washed twice with 23° C. Tyrode's buffer, and incubated in the presence of test compound or vehicle control for 30 minutes before a 15 minute treatment with DNP-human serum albumin. The degree of degranulation was determined by measuring the release of β-hexosaminidase.

antitrypanosomal = details: reported in literature; cited from earlier work
antiplasmodial = details: reported in literature; cited from earlier work

**Q.** What does the source list for `COC(=O)c1cc(O)c(O)c2c1[C@]1(C)CC[C@H]3C(C)(C)CCC[C@]3(C)[C@H]1C2` [Pelorol, pelorol]?
**A.** Activation of SHIP 1 in enzyme assay (assay-guided fractionation) (SHIP 1 enzyme): active compound; Inhibition of NO release in SHIP 1−/− macrophages (SHIP 1−/− macrophages): not observed; IgE induced mast cell degranulation [1]: significantly reduced; antitrypanosomal effects (antitrypanosomal): weak; antiplasmodial effects (antiplasmodial): weak
